Assay results: patent US9677051B2, “Erythroid production” (The Common Services Agency, priority 2012, dated 2017)
Entries after “also recorded” stand apart in the source; their conditions may differ.

Tests used:
[1] = tested on: human pluripotent stem cells (hPSC); assay: erythroid differentiation culture of hPSCs, overall cell amplification; type: cell-based; settings: for cell amplification, combination of GSK3β inhibitor and IBMX: GSK3 inhibitor combined with IBMX; for quality and quantity of erythrocytic cells produced: GSK3β inhibitor day 0 to day 3, used along with Wnt3a; for replacement of recombinant Wnt3A by GSK3β inhibitor: added during day 0 to day 3 of the differentiation protocol; for potency: concentration of GSK3β inhibitor: early stage of differentiation; for overall amplification of differentiating erythropoietic cultures, side by side comparison: Table 1, addition of GSK3β inhibitors, IBMX or both; for expansion in cell number / yield of differentiated cells: prolonged treatment d0 to d5, iPSC or hESC; for rate of cell amplification in the late stage of the method: SR1 1 μM at day 5, SC1 500 nM at day 14 and 250 nM at day 16
Experimental: (§1) The human pluripotent stem cells (hPSC) are maintained undifferentiated in Stempro medium (Life Technologies) on Cellstart (Life Technologies) and passaged approximately every 7 days, depending on their confluence, using the EZpassage tool (Life Technologies).
(§2) For differentiation, confluent hPSC are cut into squares with the EZpassage tool (Life Technologies) and plated at 500×10^3/well on Ultra low adherence six well plates (Corning) in 3 ml/well of Stemline II (Sigma) to allow them to form embryoid bodies (EBs).
(§3) On day 0 in order to induce differentiation, the following cytokines are added: Bone Morphogenic Protein 4 (BMP4) (10 ng/ml), Vascular Endothelium Growth Factor 165 (VEGF) (10 ng/ml), Wnt3A (and/or Wnt5A) (10 ng/ml), ActivinA (5 ng/ml) and Inhibitor VIII (2 μM). GSK3 Inhibitor VIII is a specific name for the Merck product (361549), it is also called AR-A014418 or N-(4-Methoxybenzyl)-N′-(5-nitro-1,3-thiazol-2-yl)urea
(§4) On day 2 of differentiation (48 hours old EBs), a new set of cytokines is added in 0.5 ml/well of Stemline II; BMP4 (20 ng/ml), VEGF (30 ng/ml), Wnt3A (and/or Wnt5A) (10 ng/ml), ActivinA (5 ng/ml), Inhibitor VIII (2 μM), Fibroblast Growth Factor α (FGFα) (10 ng/ml), Stem Cell Factor (SCF) (20 ng/ml) and β-Estradiol (0.4 ng/ml).
(§5) NB: Given cytokine concentrations are always the final concentrations of freshly added cytokines—e.g. when cells are fed rather than undergoing complete media change, we add 0.5 ml of 6× cytokines to 2.5 ml already in well to give final total volume of 3 ml with 1× cytokines.
On day 3 of differentiation the EBs are washed in PBS then dissociated using 1 ml/well TrypleSelect 10λ for 10 minutes at 37° C. After addition of 10 ml of PBS, cells are centrifuged for 3 minutes at 1200 rpm, the supernatant is discarded and the cells are resuspended in 3 ml fresh Stemline II and replated at 200×10^3/well of a regular six well tissue culture plate with the following cytokines: BMP4 (20 ng/ml), VEGF (30 ng/ml), FGFα (10 ng/ml), SCF (30 ng/ml), Insulin-like Growth Factor 2 (IGF2) (10 ng/ml), Thrombopoietin (TPO) (10 ng/ml), Heparin (5 ug/ml), Iso Butyl Methyl Xanthine (IBMX) 50 μM and β-Estradiol (0.4 ng/ml).
On day 5 of differentiation a fresh set of cytokines identical to day 3 is added in 0.5 ml/well of Stemline II such that final concentrations of fresh cytokines are those stated for day 3.
On day 7 of differentiation the cells are harvested, centrifuged 3 minutes at 1200 rpm and resuspended in fresh Stemline II medium supplemented with the same set of cytokines as day 3. If the number of cells is above 500×10^3, it is advisable to split the culture as any drastic depletion or major pH increase of the medium can have major repercussion on the differentiation efficiency.
From day 7 to day 10 of differentiation the cell density should be closely monitored in order to maintain the cell number under 10^6 per ml by adding fully supplemented media and splitting into additional wells if required.
On day 9 of differentiation a half dose of day 3 cytokines is added in 0.5 ml/well of Stemline II such that final concentrations of fresh cytokines are half those stated for day 3.
On day 10 of differentiation, the cells are centrifuged 3 minutes at 1200 rpm then re-plated in erythroid liquid culture conditions. i.e. the cells are plated at a density of 100×10^3 cells/well in 3 ml/well of Stemline II supplemented with the following cytokines: Hydrocortisone 10^−6M, SCF (50 ng/ml), Flt3-Ligand (Flt3L) (16.7 ng/ml), BMP4 (6.7 ng/ml), Interleukin 3 (IL3) (6.7 ng/ml), IL11 (6.7 ng/ml), IBMX (50 μM) and Erythropoietin (EPO) 1.3 U/ml.
From day 10 to day 17 (short protocol) or 21 (extended A phase protocol), the above cytokines are renewed every 2 days, added in 0.5 ml of Stemline II, such that final concentrations of fresh cytokines are those stated for day 10. […]

[2] = tested on: genes involved in erythropoiesis; assay: qRT-PCR (Taqman) of genes involved in erythropoiesis in differentiating hPSCs; type: cell-based, human; settings: for expression of globin genes and other markers of definitive hematopoiesis (HBA, HBG, HBB, Runx1, Gata2, HoxB4) and erythropoiesis genes (HOXA9, CD36, NFE2) / necessary reduction in pluripotent markers: hiPSC or hESC, Inhibitor VIII and IBMX; for key molecular markers, mRNA expression: iPSC, InhVIII+IBMX, day 0, 10, 17 and 24
Excerpt: At days 0, 10, 17 and 24 the expression of selected genes of interest by the differentiating cells was monitored by qRT-PCR (Taqman) The gene panel was selected to comprise genes known to be expressed at various stages of erythropoiesis in order to evaluate the degree of differentiation of the hPSCs.

differentiating hPSCs = assay: morphology of differentiating cells, Rapid Romanovski staining of cytospin preparations; type: cell-based, human; settings: for sturdiness of cells, proneness to lysis: SR1 at day 5, SC1 at days 14 and 16
Experimental: At day 17 onward, the erythroid stage of the cells was determined assessment of morphology after Rapid Romanovski staining of cytospin preparations.

globins = assay: HPLC analysis of globin protein expression profile of differentiated hPSCs; type: cell-based, human; settings: full differentiation process in presence of both GSK3β inhibitor and IBMX
Experimental: At day 24, 28 or onward the globin protein expression profile was analysed by High Pressure Liquid Chromatography to evaluate the level of switch from primitive to definitive hematopoiesis.

hESC line H1 = assay: erythroid differentiation culture of hESC line H1; type: cell-based, human; settings: H1 ESC differentiation
Experimental: as §1, §2
(§6) On day 0 in order to induce differentiation, the following cytokines are added: Bone Morphogenic Protein 4 (BMP4) (10 ng/ml), Vascular Endothelium Growth Factor 165 (VEGF) (10 ng/ml), Wnt3A (and/or Wnt5A) (10 ng/ml), ActivinA (5 ng/ml) and Inhibitor VIII (2 μM). GSK3 Inhibitor VIII is a specific name for the Merck product (361549), it is also called AR-A014418 or N-(4-Methoxybenzyl)-N′-(5-nitro-1,3-thiazol-2-yl)urea […]
(§7) From day 7 to day 10 of differentiation the cell density should be closely monitored in order to maintain the cell number under 10^6 per ml by adding fully supplemented media and splitting into additional wells if required. […]

RC9 = assay: erythroid differentiation culture of hESC line RC9; type: cell-based, human; settings: RC9 cell line
Experimental: as §1, §2, §6, §7

iPSC = assay: erythroid differentiation culture of iPSC; type: cell-based, human
Experimental: as §1, §2, §3, §4, §5
On day 3 of differentiation the EBs are washed in PBS then dissociated using 1 ml/well TrypleSelect 10λ for 10 minutes at 37° C. […]
as §7

O=C1Nc2cc(Br)ccc2/C1=C1/Nc2ccccc2/C1=N\O [BiO]
cell amplification, combination of GSK3β inhibitor and IBMX [1]: does not have this effect

Cc1c[nH]c(-c2cnc(NCCNc3ccc(C#N)cn3)nc2-c2ccc(Cl)cc2Cl)n1 [CHIR99021]
cell amplification, combination of GSK3β inhibitor and IBMX [1]: synergistic
quality and quantity of erythrocytic cells produced [1]: marked improvement
replacement of recombinant Wnt3A by GSK3β inhibitor [1]: could not reproducibly replace Wnt3a
effect on hESC versus hiPSC lines ([1]; compared to Inhibitor VIII): stronger effect on hESC than hiPSC lines
potency: concentration of GSK3β inhibitor [1]: 200 nM

CC(C)Cn1c(=O)n(C)c(=O)c2[nH]cnc21 [IBMX, 3-isobutyl-1-methylxanthine]
cell amplification, combination of GSK3β inhibitor and IBMX [1]: synergetic effect on cell amplification
expansion, cumulative fold amplification over time ([1]; H1 (hESC) or hiPSC, combinations of GSK3β inhibitors and IBMX): further increases expansion
cell numbers in the culture ([1]; IBMX added to culture): can increase cell numbers
overall amplification of differentiating erythropoietic cultures, side by side comparison [1]: inconsistency. Results consistently show a positive effect of Inhibitor VIII and IBMX. The gain provided by a prolonged
stage of addition inducing maximum amplification ([1]; added to culture medium throughout day 3 and 17): most effective
expression of globin genes and other markers of definitive hematopoiesis (HBA, HBG, HBB, Runx1, Gata2, HoxB4) and erythropoiesis genes (HOXA9, CD36, NFE2) [2]: increase expression
necessary reduction in pluripotent markers [2]: do not affect
key molecular markers, mRNA expression [2]: Increase key molecular markers
cells morphology and maturation (differentiating hPSCs; addition of IBMX and GSK3β inhibitors, compared to the control culture conditions): did not have any negative effect
morphological appearance of cells (differentiating hPSCs; combination of GSK3β inhibitor and IBMX): morphologically more intact and robust
HPLC globin profile (globins): almost similar to the cells of fetal origin

COc1ccc(CNC(=O)Nc2ncc([N+](=O)[O-])s2)cc1 [Inhibitor VIII, N-(4-methoxybenzyl)-N′-(5-nitro-1,3-thiazol-2-yl)urea]
cell amplification, combination of GSK3β inhibitor and IBMX [1]: synergistic
quality and quantity of erythrocytic cells produced [1]: marked improvement
overall amplification of differentiating erythropoietic cultures, side by side comparison [1]: inconsistency. Results consistently show a positive effect of Inhibitor VIII and IBMX. The gain provided by a prolonged
total fold amplification of erythroid differentiation culture ([1]; absence or presence of inhibitor VIII, hESC lines RC9 and H1, iPS line): increases cell numbers in multiple lines
replacement of recombinant Wnt3A by GSK3β inhibitor [1]: could not reproducibly replace Wnt3a
potency: concentration of GSK3β inhibitor [1]: 2000 nM
expansion in cell number / yield of differentiated cells [1]: increases the yield of differentiated cells
expansion in cell number / yield of differentiated cells ([1]; listed as InhVIII): increases the expansion in cell number
replacement of Activin A (hESC line H1): can replace Activin A
replacement of Activin A (RC9): wasn't observed
replacement of Activin A (iPSC; iPSC G cell line): wasn't observed
expression of globin genes and other markers of definitive hematopoiesis (HBA, HBG, HBB, Runx1, Gata2, HoxB4) and erythropoiesis genes (HOXA9, CD36, NFE2) [2]: increase expression
necessary reduction in pluripotent markers [2]: do not affect
key molecular markers, mRNA expression [2]: Increase key molecular markers

Cc1cc(Nc2ncc3c(n2)N(C)C(=O)N(c2cc(NC(=O)c4cccc(C(F)(F)F)c4)ccc2C)C3)n(C)n1 [SC1]
rate of cell amplification in the late stage of the method [1]: greater rate of cell amplification; also recorded: enhances or increases the rate of cell amplification
sturdiness of cells, proneness to lysis (differentiating hPSCs): sturdier and less prone to lysis; also recorded: more “sturdy” and less prone lysis

CC(C)n1cnc2c(NCCc3ccc(O)cc3)nc(-c3csc4ccccc34)nc21 [SR1]
rate of cell amplification in the late stage of the method [1]: greater rate of cell amplification; also recorded: enhances or increases the rate of cell amplification
sturdiness of cells, proneness to lysis (differentiating hPSCs): sturdier and less prone to lysis; also recorded: more “sturdy” and less prone to lysis

B1: Activin A: cytokine added at 5 ng/ml in the early stage of differentiation (protein, UniProt P08476 311-426, looked up)
Inhibin beta A chain: GLECDGKVNICCKKQFFVSFKDIGWNDWIIAPSGYHANYCEGECPSHIAGTSGSSLSFHSTVINHYRMRGHSPFANLKSCCVPTKLRPMSMLYYDDGQNIIKKDIQNMIVEECGCS
effect of an increased dose on differentiation ([1]; data not shown): doesn't have any beneficial effect
differentiation efficiency in the absence of Activin A (RC9): markedly hinders the differentiation efficiency
requirement for efficient differentiation (iPSC; iPSC): required for efficient differentiation
differentiation efficiency in the absence of Activin A (iPSC; iPSC G cell line): markedly hinders the differentiation efficiency
